{"source": "patent US20240166690A1", "about": "“MULTI-TARGET CY[…] FOR OPIOID/NEUROPEPTIDE FF RECEPTORS, AND PREPARATION THEREFOR AND APPLICATION THEREOF” (SHANGHAI TIANCI LIFE SCIENCE DEVELOPMENT CO., LTD., priority 2021, published 2024)", "key": {"Mu-opioid receptor": {"molecular_target": "T1, Mu-opioid receptor (Homo sapiens, UniProt P35372)", "T1 construct": "expressed in transfected cells; host or cells: HEK293", "T1 sequence (P35372 whole entry)": "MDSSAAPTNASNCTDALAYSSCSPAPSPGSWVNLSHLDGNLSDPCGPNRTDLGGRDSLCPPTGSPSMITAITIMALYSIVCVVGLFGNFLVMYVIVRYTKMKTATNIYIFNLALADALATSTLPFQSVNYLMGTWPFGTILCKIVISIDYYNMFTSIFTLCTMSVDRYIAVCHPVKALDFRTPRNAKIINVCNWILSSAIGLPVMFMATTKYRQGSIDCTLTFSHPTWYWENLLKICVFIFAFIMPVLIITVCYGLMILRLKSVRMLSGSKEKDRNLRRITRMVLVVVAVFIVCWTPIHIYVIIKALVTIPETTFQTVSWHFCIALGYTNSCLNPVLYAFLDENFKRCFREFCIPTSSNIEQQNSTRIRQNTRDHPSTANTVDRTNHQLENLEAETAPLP", "experiment": "cAMP functional experiment, Mu-opioid receptor (forskolin-induced cAMP accumulation)", "assay_type": "cell-based", "protocol": "(§1) The agonistic activity of the cyclopeptide molecule of the present invention against Mu-opioid receptor, Delta-opioid receptor, Kappa-opioid receptor, NPFF1 receptor and NPFF2 receptor was evaluated by detecting the regulation of the cyclopeptide molecule of the present invention on the intracellular accumulation of cyclic adenosine monophosphate (cAMP) induced by Forskolin in HEK293 cells stably expressing these five receptors. The experimental method was: the cells were seeded in 24 well plates with 120000 cells per well, and were cultured for more than 20 hours. At the beginning of the experiment, the culture medium in the culture dish was suck out, and then 500 μL of preheated serum-free medium containing 1 mM of IBMX was added, the mixture was incubated at 37° C. for 10 minutes. Then each 10 μL of the drug to be tested and 10 μM of forskolin (final concentration) were added to each well. The mixture was incubated at 37° C. for 30 minutes. After incubation, all the liquid was suck out from the culture dish, 500 μL of 0.2 N hydrochloric acid was added to each well, the mixture was incubated at room temperature for 30 minutes to promote cell lysis. After lysis was complete, NaOH was added to neutralize the hydrochloric acid solution used for lysis. Then all the liquid was suck out from the culture dish into centrifuge tubes, the liquid was centrifuged at 12000 rpm for 2 minutes. 50 μL was taken to a clean centrifuge tube, 100 μL of 60 μg/μL PKA was added, and 100 μL of TE cAMP buffer was added to the blank control group (B). Another 50 μL of 0.5 μ Ci[^3H]cAMP was added to each of the above centrifuge tubes, the mixture was quickly mixed and incubated at 4° C. for more than 2 hours. After incubation, another 100 μL of activated carbon suspension was added to each tube, the mixture was vortex agitated evenly, placed in an ice bath for 1 minute, centrifuged at 5000 rpm for 4 minutes. 200 μL of supernatant after centrifugation in each tube was suck out to a 24 well plate, with an additional 700 μL of scintillator liquid added per well, then the 24 well plate was sealed with adhesive film, placed for 3 hours, then placed on the scintillation instrument for measurement.\n(§2) The inhibitory effect of cAMP was represented by the percentage (% control) of drug inhibition of intracellular cAMP accumulation induced by Forskolin, wherein % control=(cAMP content when treated with Forskolin−cAMP content when Forskolin co-treated with the test drug)/(cAMP content when treated with Forskolin−cAMP content when treated with solvent). The related % control data was represented by mean±S.E.M. The dose-effect relationship of the drug was statistically analyzed using a nonlinear regression model, and the IC50 values of the multi-target cyclopeptide molecule on inhibition of Forskolin induced intracellular cAMP accumulation were calculated using the statistical software GraphPad Prism version 5.0."}, "Kappa-opioid receptor": {"molecular_target": "T2, Kappa-opioid receptor (Homo sapiens, UniProt P41145)", "T2 construct": "expressed in transfected cells; host or cells: HEK293", "T2 sequence (P41145 whole entry)": "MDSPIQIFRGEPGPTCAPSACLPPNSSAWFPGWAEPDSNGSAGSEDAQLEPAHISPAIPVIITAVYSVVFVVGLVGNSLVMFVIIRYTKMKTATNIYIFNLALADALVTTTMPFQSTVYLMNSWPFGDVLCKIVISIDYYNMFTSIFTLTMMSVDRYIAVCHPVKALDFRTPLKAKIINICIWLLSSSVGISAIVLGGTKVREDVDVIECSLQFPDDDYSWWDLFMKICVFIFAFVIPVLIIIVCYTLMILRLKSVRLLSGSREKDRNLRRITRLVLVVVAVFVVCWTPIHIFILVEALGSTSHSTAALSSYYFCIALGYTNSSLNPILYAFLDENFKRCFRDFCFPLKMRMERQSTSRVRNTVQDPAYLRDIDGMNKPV", "experiment": "cAMP functional experiment, Kappa-opioid receptor (forskolin-induced cAMP accumulation)", "assay_type": "cell-based", "protocol": "as §1, §2"}, "Delta-opioid receptor": {"molecular_target": "T3, Delta-opioid receptor (Homo sapiens, UniProt P41143)", "T3 construct": "expressed in transfected cells; host or cells: HEK293", "T3 sequence (P41143 whole entry)": "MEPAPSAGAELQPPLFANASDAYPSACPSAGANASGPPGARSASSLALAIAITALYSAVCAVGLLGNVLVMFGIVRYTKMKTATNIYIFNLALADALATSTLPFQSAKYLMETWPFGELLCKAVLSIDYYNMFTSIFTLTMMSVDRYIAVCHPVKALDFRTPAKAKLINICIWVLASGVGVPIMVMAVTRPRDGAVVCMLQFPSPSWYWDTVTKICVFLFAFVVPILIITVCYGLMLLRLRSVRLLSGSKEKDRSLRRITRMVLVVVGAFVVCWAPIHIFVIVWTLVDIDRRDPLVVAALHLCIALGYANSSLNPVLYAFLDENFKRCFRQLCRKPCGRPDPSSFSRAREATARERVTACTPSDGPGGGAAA", "experiment": "cAMP functional experiment, Delta-opioid receptor (forskolin-induced cAMP accumulation)", "assay_type": "cell-based", "protocol": "as §1, §2"}, "NPFF1 receptor": {"molecular_target": "T4, NPFF1 receptor (Homo sapiens, UniProt Q9GZQ6)", "T4 construct": "expressed in transfected cells; host or cells: HEK293", "T4 sequence (Q9GZQ6 whole entry)": "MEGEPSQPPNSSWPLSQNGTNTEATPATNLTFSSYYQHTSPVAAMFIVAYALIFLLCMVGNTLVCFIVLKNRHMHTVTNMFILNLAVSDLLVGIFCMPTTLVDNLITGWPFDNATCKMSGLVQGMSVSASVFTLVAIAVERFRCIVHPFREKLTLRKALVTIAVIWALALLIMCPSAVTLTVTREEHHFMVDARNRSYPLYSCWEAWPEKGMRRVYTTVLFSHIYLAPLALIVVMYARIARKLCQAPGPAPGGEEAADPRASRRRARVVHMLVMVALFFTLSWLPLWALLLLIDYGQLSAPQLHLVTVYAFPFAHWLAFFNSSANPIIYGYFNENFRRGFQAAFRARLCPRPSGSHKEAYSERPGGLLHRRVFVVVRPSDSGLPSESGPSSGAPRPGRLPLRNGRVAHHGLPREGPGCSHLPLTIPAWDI", "experiment": "cAMP functional experiment, NPFF1 receptor (forskolin-induced cAMP accumulation)", "assay_type": "cell-based", "protocol": "as §1, §2"}, "NPFF2 receptor": {"molecular_target": "T5, NPFF2 receptor (Homo sapiens, UniProt Q9Y5X5)", "T5 construct": "expressed in transfected cells; host or cells: HEK293", "T5 sequence (Q9Y5X5 whole entry)": "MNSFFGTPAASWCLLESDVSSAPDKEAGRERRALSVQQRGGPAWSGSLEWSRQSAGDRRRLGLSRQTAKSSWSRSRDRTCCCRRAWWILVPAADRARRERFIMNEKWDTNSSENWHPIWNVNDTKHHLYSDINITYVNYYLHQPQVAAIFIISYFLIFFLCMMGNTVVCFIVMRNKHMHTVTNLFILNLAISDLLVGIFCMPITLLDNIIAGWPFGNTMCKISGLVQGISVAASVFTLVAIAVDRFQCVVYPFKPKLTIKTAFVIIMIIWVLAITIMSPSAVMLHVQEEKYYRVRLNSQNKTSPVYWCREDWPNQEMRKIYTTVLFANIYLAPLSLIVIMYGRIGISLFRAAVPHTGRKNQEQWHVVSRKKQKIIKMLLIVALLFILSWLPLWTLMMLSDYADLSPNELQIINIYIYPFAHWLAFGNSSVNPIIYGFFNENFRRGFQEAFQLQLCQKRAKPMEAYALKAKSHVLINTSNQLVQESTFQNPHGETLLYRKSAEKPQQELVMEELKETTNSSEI", "experiment": "cAMP functional experiment, NPFF2 receptor (forskolin-induced cAMP accumulation)", "assay_type": "cell-based", "protocol": "as §1, §2"}, "Kunming male mice [1]": {"tested_on": "Kunming male mice", "experiment": "Photothermal tail flick experiment, subcutaneous injection", "assay_type": "in vivo", "conditions": "photothermal tail flick", "protocol": "(§3) Two administration methods were used: peripheral subcutaneous administration and oral administration. Subsequently, the analgesic activity of the drug was studied using an acute pain model of photothermal tail flick in mice.\nSubcutaneous administration on the back was chosen for subcutaneous administration (s.c.). A sterile 1 mL syringe was used and the drug with the volume of 0.1 mL/10 g was injected for administration. The back skin was grasped with the right hand, the needle was tilted in, and the drug was injected subcutaneously into the mouse's back. After the needle was inserted, shook it left and right, and observe to confirm that the needle had indeed entered the subcutaneous area to prevent the needle from puncturing the skin and leaking the drug.\n(§4) The photothermal tail flick experiment is based on the experimental method summarized by D'Amour and Smith to optimize the experimental parameters. The experiment selected Kunming male mice with body weigh 21±2 g, and ambient temperature controlled at 22±2° C. The experimental mice were allowed to drink water freely and were moved from the breeding room to the experimental area for adaptation for 30 minutes before starting the experiment. Then the mice were grab with the right hand and the tail hang freely. Then the mice's tail were placed on a radiation light source, 2-3 mm away from the mice tail. The intensity of radiation heat was adjusted to the tail flick time of mice being 3-5 s, which is the basic pain threshold of photothermal tail flick. The irradiation time of the mice tail should not exceed 10 s to prevent scalding of the mice tail, which was the maximum latency for photothermal tail flick. After administration, time points of 10, 20, 30, 45, 60, 90, 120, 180, 240, 300, 360, and 420 minutes were selected to measure the tail flick latency of mice after administration.\n(§5) The analgesic effect of drugs was generally evaluated using the maximum analgesic effect MPE (%), MPE (%)=100×[(pain threshold after administration−basic pain threshold)/(10 seconds−basic pain threshold)]. 50% effective dose (ED50) refers to the corresponding drug dose that causes a 50% effect. ED50 and 95% confidence interval were calculated using MPE (%) and the drug concentration that achieves the maximum analgesic effect MPE (%) by the statistical software GraphPad Prism 5.0. The difference in analgesic effects was statistically analyzed using one-way ANOVA (Dunnett test), *P<0.05, **P<0.01, and ***P<0.001 indicated significance of the difference between the group with only drug injected and the saline group."}, "Kunming male mice [2]": {"tested_on": "Kunming male mice", "experiment": "Photothermal tail flick experiment, oral administration", "assay_type": "in vivo", "conditions": "tail flick", "protocol": "as §3\n1 mL sterile syringe was used for oral administration (p.o.), the pinhead was replaced with a mouse gastric lavage needle, and […] of the drug was orally administered. The skin on the neck and back of the mouse was grasped with the left hand with the abdomen facing upwards. Noted that the mouse's entire body was fixed to vertical, which was beneficial for oral gavage. A gastric lavage needle (No. 12 needle and 1 mL syringe) was held in the right hand and was inserted to the esophagus along the upper jaw which is pressed the tongue tightly from the corner of the mouse's mouth. Gastric lavage fluid can be injected when the needle inserted 2.5 cm. The inserting length of the needle should be determined through practice in advance, as there is a sense of falling into a hole after the needle is inserted. If the injection position was appropriate, it should be very smooth. […] This can cause immediate death of the mouse after gavage.\nas §4, §5"}, "[3]": {"conditions": "morphine, reference method; cited from earlier work"}}, "note": "Bridge positions count the residues as written; N and C are the ends. Square brackets hold non-standard residues; d marks the D form. Peptide text beside a SMILES is read from it. NMeF = CN[C@@H](Cc1ccccc1)C(=O)O; Cha = N[C@@H](CC1CCCCC1)C(=O)O; dDap = NC[C@@H](N)C(=O)O; Aib = CC(C)(N)C(=O)O; βAla = NCCC(=O)O", "data": [{"compound": "CN1C(=O)CNC(=O)[C@H](NC(=O)[C@@H](N)Cc2ccc(O)cc2)CCC(=O)NCCCC[C@@H](C(=O)N2CCC[C@H]2C(=O)N[C@@H](CCC(N)=O)C(=O)N[C@@H](CCCNC(=N)N)C(=O)N[C@@H](Cc2ccccc2)C(N)=O)NC(=O)[C@@H]1Cc1ccccc1", "note": "[Compound 7, Tyr-c^[2,5][D-Glu-Gly-NMe-Phe-Lys]-Pro-Gln-Arg-Phe-NH2] (H-Y[dE]G[NMeF]KPQRF-NH2; lactam 2-5)", "values": [{"measurement": "melting point", "value": "182 to 184", "unit": "°C"}]}, {"compound": "CN1C(=O)CNC(=O)[C@H](NC(=O)[C@@H](N)Cc2ccc(O)cc2)CNC(=O)C[C@@H](C(=O)N2CCC[C@H]2C(=O)N[C@@H](CCC(N)=O)C(=O)N[C@@H](CCCNC(=N)N)C(=O)N[C@@H](Cc2ccccc2)C(N)=O)NC(=O)[C@@H]1Cc1ccccc1", "note": "[Compound 10, Tyr-c^[2,5][D-Dap-Gly-NMe-Phe-Asp]-Pro-Gln-Arg-Phe-NH2] (H-Y[dDap]G[NMeF]DPQRF-NH2; lactam 2-5)", "values": [{"measurement": "IC50", "setting": "Mu-opioid receptor", "value": 0.238, "unit": "µM"}, {"measurement": "IC50", "setting": "Kappa-opioid receptor", "value": 0.136, "unit": "µM"}, {"measurement": "IC50", "setting": "Delta-opioid receptor", "value": 0.374, "unit": "µM"}, {"measurement": "IC50", "setting": "NPFF1 receptor", "value": 0.0901, "unit": "µM"}, {"measurement": "IC50", "setting": "NPFF2 receptor", "value": 0.349, "unit": "µM"}, {"measurement": "ED50 value (95% confidence interval), analgesic activity", "setting": "Kunming male mice [1]", "value": "15.0 (13.6 to 16.5) μg/kg"}, {"measurement": "Maximum analgesic time", "setting": "Kunming male mice [2]; oral administration at the maximum analgesic dose", "value": 30, "unit": "min"}, {"measurement": "analgesic duration", "setting": "Kunming male mice [2]; oral administration", "value": 240, "unit": "min"}]}, {"compound": "CN1C(=O)CNC(=O)[C@H](NC(=O)[C@@H](N)Cc2ccc(O)cc2)CCCCNC(=O)C[C@@H](C(=O)N2CCC[C@H]2C(=O)NCCC(=O)N[C@@H](CCCNC(=N)N)C(=O)N[C@@H](CC2CCCCC2)C(N)=O)NC(=O)[C@@H]1Cc1ccccc1", "note": "[Compound 13, Tyr-c[D-Lys-Gly-NMe-Phe-Asp]-Pro-β-Ala-Arg-Cha-NH2] (H-Y[dK]G[NMeF]DP[βAla]R[Cha]-NH2; lactam 2-5)", "values": [{"measurement": "melting point", "value": "175 to 177", "unit": "°C"}]}, {"compound": "CN1C(=O)CNC(=O)[C@H](NC(=O)[C@@H](N)Cc2ccc(O)cc2)CCCCNC(=O)C[C@@H](C(=O)N2CCC[C@H]2C(=O)NC(C)(C)C(=O)N[C@@H](CCCNC(=N)N)C(=O)N[C@@H](CC2CCCCC2)C(N)=O)NC(=O)[C@@H]1Cc1ccccc1", "note": "[Compound 14, Tyr-c^[2,5][D-Lys-Gly-NMe-Phe-Asp]-Pro-Aib-Arg-Cha-NH2] (H-Y[dK]G[NMeF]DP[Aib]R[Cha]-NH2; lactam 2-5)", "values": [{"measurement": "melting point", "value": "196 to 198", "unit": "°C"}]}, {"compound": "CN1CC[C@]23c4c5ccc(O)c4O[C@H]2[C@@H](O)C=C[C@H]3[C@H]1C5", "note": "[morphine]", "values": [{"measurement": "analgesic ED50", "setting": "[3]", "value": 1.68, "unit": "mg/kg"}]}]}
